Measured values reported in ChEMBL document CHEMBL4665696, “Highly Modified Lanostane Triterpenes from the Wood-Rot Basidiomycete Ganoderma colossus: Comparative Chemical Investigations of Natural and Artificially Cultivated Fruiting Bodies and Mycelial Cultures” (J Nat Prod, 2020).
Converted amounts (≈) assume the structure as drawn.

Key:
Plasmodium falciparum = experiment: Antimalarial activity against Plasmodium falcipuram K1 by microculture radioistope technique; format: functional, organism-based
[1] = tested on: Mycobacterium tuberculosis; experiment: Antitubercular activity against Mycobacterium tuberculosis H37Ra by green fluorescent protein microplate assay; format: functional
Vero = experiment: Cytotoxicity against African green monkey Vero cells by green fluorescent protein-based assay; format: cell-based; settings: Chlorocebus sabaeus

CC(=O)O[C@@H](C/C=C(/C)C(=O)O)[C@@H](C)[C@H]1CC[C@@]2(C)C3=C(C=C4C=CC(=O)OC(C)(C)[C@@H]4CC3)CC[C@]12C
IC50 (Plasmodium falciparum): 0.03 µg/mL (≈ 0.0572 µM)
MIC [1]: > 50 µg/mL
IC50 (Vero): 49.2 µg/mL (≈ 93.8 µM)

CC1=CC[C@@H]([C@@H](C)[C@H]2CC[C@@]3(C)C4=C(CC[C@]23C)[C@]23CC[C@H](OC2=O)C(C)(C)[C@@H]3CC4)OC1=O
IC50 (Plasmodium falciparum): > 10 µg/mL
MIC [1]: > 50 µg/mL
IC50 (Vero): > 50 µg/mL

CC1=CC[C@@H]([C@@H](C)[C@H]2CC[C@@]3(C)C4=C(CC[C@]23C)[C@@]2(C)CCC(=O)C(C)(C)[C@@H]2CC4)OC1=O
IC50 (Plasmodium falciparum): 3.6 µg/mL (≈ 7.95 µM)
MIC [1]: > 50 µg/mL
IC50 (Vero): > 50 µg/mL

Cc1c2ccncc2c(C)c2c1[nH]c1ccccc12 [ELLIPTECINE]
IC50 (Vero): 0.87 µg/mL (≈ 3.53 µM)

CC(=O)O[C@@H](C/C=C(/C)C(=O)O)[C@@H](C)[C@H]1CC[C@@]2(C)C3=CC[C@@H](C(C)(C)OC(C)=O)[C@]4(CCC(=O)OC4)C3=CC[C@]12C
IC50 (Plasmodium falciparum): 5.8 µg/mL (≈ 9.92 µM)
MIC [1]: > 50 µg/mL
IC50 (Vero): > 50 µg/mL

Cl.O[C@@H](c1cc(C(F)(F)F)nc2c(C(F)(F)F)cccc12)[C@H]1CCCCN1
IC50 (Plasmodium falciparum): > 10 µg/mL

CC(=O)OC[C@]12CC[C@H](O)C(C)(C)[C@@H]1CCC1=C2CC[C@]2(C)[C@@H]([C@H](C)[C@H](C/C=C(/C)C(=O)O)OC(C)=O)CC[C@@]12C
IC50 (Plasmodium falciparum): > 10 µg/mL
MIC [1]: > 50 µg/mL
IC50 (Vero): > 50 µg/mL

CC(=O)OC[C@]12CCC(=O)OC(C)(C)[C@@H]1CC=C1C2=CC[C@]2(C)[C@@H]([C@H](C)[C@H](C/C=C(/C)C(=O)O)OC(C)=O)CC[C@@]12C
IC50 (Plasmodium falciparum): > 10 µg/mL
MIC [1]: > 50 µg/mL
IC50 (Vero): > 50 µg/mL

CC(=O)O[C@@H]1C[C@H]([C@H](C)[C@@H]2CC=C(C)C(=O)O2)[C@@]2(C)CCC3=C(CC[C@H]4C(C)(C)OC(=O)C=C[C@]45C[C@H]35)[C@]12C
IC50 (Plasmodium falciparum): 0.001 µg/mL (≈ 0.00186 µM)
MIC [1]: 25 µg/mL (≈ 46.6 µM)
IC50 (Vero): 8.5 µg/mL (≈ 15.8 µM)

CC(=O)OC[C@@]1(CCC(=O)O)C2=C(CC[C@H]1C(C)(C)O)[C@]1(C)CC[C@H]([C@H](C)[C@H]3OC(=O)C(C)=C[C@@H]3O)[C@@]1(C)CC2
IC50 (Plasmodium falciparum): 5 µg/mL (≈ 8.92 µM)
MIC [1]: > 50 µg/mL
IC50 (Vero): > 50 µg/mL

CC(=O)OC[C@]12CCC(=O)OC(C)(C)[C@@H]1CCC1=C2CC[C@]2(C)[C@@H]([C@H](C)[C@H](C/C=C(/C)C(=O)O)OC(C)=O)CC[C@@]12C
IC50 (Plasmodium falciparum): > 10 µg/mL
MIC [1]: > 50 µg/mL
IC50 (Vero): > 50 µg/mL

CC(=O)OC[C@@]1(CCC(=O)O)C2=CC[C@]3(C)[C@@H]([C@H](C)[C@H](C/C=C(/C)C(=O)O)OC(C)=O)CC[C@@]3(C)C2=CC[C@H]1C(C)(C)O
IC50 (Plasmodium falciparum): 1.4 µg/mL (≈ 2.32 µM)
MIC [1]: > 50 µg/mL
IC50 (Vero): > 50 µg/mL

NNC(=O)c1ccncc1 [ISONIAZID]
MIC [1]: 0.047 µg/mL (≈ 0.343 µM)

CC(=O)OC[C@@]1(CCC(=O)O)C2=C(CC[C@H]1C(C)(C)O)[C@]1(C)CC[C@H]([C@H](C)[C@@H]3CC=C(C)C(=O)O3)[C@@]1(C)CC2
IC50 (Plasmodium falciparum): 8.2 µg/mL (≈ 15.1 µM)
MIC [1]: 25 µg/mL (≈ 45.9 µM)
IC50 (Vero): > 50 µg/mL

C[C@H]1[C@@H](O)O[C@@H]2O[C@@]3(C)CC[C@H]4[C@H](C)CC[C@@H]1[C@@]24OO3 [ARTENIMOL]
IC50 (Plasmodium falciparum): > 10 µg/mL

CC(=O)OC[C@@]1(CCC(=O)O)C2=C(CC[C@H]1C(C)(C)O)[C@]1(C)CC[C@H]([C@H](C)[C@H](C/C=C(/C)C(=O)O)OC(C)=O)[C@@]1(C)CC2
IC50 (Plasmodium falciparum): > 10 µg/mL
MIC [1]: > 50 µg/mL
IC50 (Vero): > 50 µg/mL
